In PMC7182039 (Journal of medicinal chemistry, 2020):
“And” between values parts separate entries of the source, which are not always exact repeats. Identical values can stand only once. Like-named read-outs stand apart in the source and are kept apart here. Marks after values point to notes of the source that are not given here.

What was measured:
[1] = tested on: schistosomes; settings: cited from earlier work
[2] = Kinetic solubility by nephelometry; assay type: physicochemical; settings: for sol6.5 / sol2.0: kinetic solubility, 1% DMSO, 30 min; for sol6.5: pH 6.5 phosphate buffer; for sol2.0: 0.01 M HCl (approx. pH 2.0)
[3] = tested on: S. mansoni; settings: adult infection, mice, single 400 mg/kg oral dose, cited from earlier work
[4] = tested on: juvenile stage of S. mansoni; settings: mice, single 200 mg/kg oral dose; cited from earlier work
[5] = tested on: foreskin fibroblast (HFF); assay: Cytotoxicity screen; assay type: cell-based, human; settings: 24 h, Alamar blue, data not shown
[6] = tested on: hepatocyte (HC-04); assay: Cytotoxicity screen; assay type: cell-based, human; settings: HC-04, 24 h, Alamar blue; data not shown
[7] = In vitro metabolic stability in human liver microsomes; assay type: in vitro ADME; settings: for h CLint: 37 °C, 0.4 mg/mL protein, NADPH
[8] = In vitro metabolic stability in mouse liver microsomes; assay type: in vitro ADME; settings: 37 °C, 0.4 mg/mL protein, NADPH
[9] = tested on: osteosarcoma (U-2 OS); assay: Cytotoxicity screen; assay type: cell-based, human; settings: 24 h, Alamar blue, data not shown
[10] = tested on: kidney (HEK 293T); assay: Cytotoxicity screen; assay type: cell-based, human; settings: 24 h, Alamar blue, data not shown

| Structure (SMILES) | antischistosomal activity [1] | sol6.5 [2] [µg/mL] | S. mansoni WBR (%) 1 × 400 mg/kg po ([3]; 400 mg/kg) | S. mansoni WBR (%) 1 × 200 mg/kg po [4] | S. mansoni WBR (%) 1 × 400 mg/kg po [3] | cytotoxicity: concentration without inhibition of the cell line [5] [µM] | cytotoxicity: concentration without inhibition of the cell line [6] [µM] | h CLint [7] | m CLint [8] | cytotoxicity: concentration without inhibition of the cell line [9] [µM] | cytotoxicity: concentration without inhibition of the cell line [10] [µM] | sol2.0 [2] [µg/mL] | conversion to 2 in human liver microsomes [7] | solubility ([2]; DMSO) [µg/mL] |
| --- | --- | --- | --- | --- | --- | --- | --- | --- | --- | --- | --- | --- | --- | --- |
| c1cc([C@H]2CC[C@]3(CC2)OO[C@]2(O3)C3CC4CC(C3)CC2C4)ccc1OCCN1CCOCC1 [Compound 1] | no antischistosomal activity |  |  |  |  |  |  |  |  |  |  |  |  |  |
| O=C(O)COc1ccc([C@H]2CC[C@]3(CC2)OOC2(O3)C3CC4CC(C3)CC2C4)cc1 (some centres unmarked) [Compound 2] |  | 6.3 to 12.5 | 80^i,j % | 100^a % |  |  |  |  |  |  |  |  |  |  |
| O=C(O)c1ccc([C@H]2CC[C@]3(CC2)OOC2(O3)C3CC4CC(C3)CC2C4)cc1 (some centres unmarked) [Compound 3] |  |  |  | 100% and 84^a % | 74^i,j % |  |  |  |  |  |  |  |  |  |
| O=C(O)COc1ccc([C@H]2CC[C@]3(CC2)OOC2(O3)C3CC4CC(C3)CC2C4)cc1Cl (stereo partly drawn) [Compound 7, cis-Adamantane-2-spiro-3 ′−8 ′-[3-chloro-4-(carboxymethoxy)-phenyl]-1′,2′,4′-trioxaspiro[4.5]decan] |  | 3.1 to 6.3 |  |  |  | > 50 | > 50 | < 7 μL/(min mg) protein | 8 μL/(min mg) protein | > 50 | > 50 |  |  |  |
| O=C(O)CNC(=O)COc1ccc([C@H]2CC[C@]3(CC2)OOC2(O3)C3CC4CC(C3)CC2C4)cc1 (stereo partly drawn) [Compound 14, cis-Adamantane-2-spiro-3′−8′-[4-[2-[(carboxymethyl)amino]-2-oxoethoxy]phenyl]-1′,2′,4′-trioxaspiro[4.5]decane] |  |  |  |  |  | > 50 | > 50 | <7/CND^a,b μL/(min mg) protein |  | > 50 | > 50 | 12.5 to 25 | converted to 2 in human |  |
| O=C(O)CN1CCC(Oc2ccc([C@H]3CC[C@]4(CC3)OOC3(O4)C4CC5CC(C4)CC3C5)cc2)CC1 (some centres unmarked) [Compound 16] |  |  |  |  |  | > 50 | > 50 | <7/<7 μL/(min mg) protein | <7/<7 μL/(min mg) protein | > 50 | > 50 |  |  | < 1000 |
| CS(=O)(=O)O.O=C(O)CNCc1ccc([C@H]2CC[C@]3(CC2)OOC2(O3)C3CC4CC(C3)CC2C4)cc1 (stereo partly drawn) [Compound 17, cis-Adamantane-2-spiro-3′−8′-[4-[[(carboxymethyi)amino]-methyl]phenyi]-1′,2′,4′-trioxaspiro[4.5]decane mesyiate] |  | < 6.3 |  |  |  | > 50 | > 50 | < 7 μL/(min mg) protein | 10 μL/(min mg) protein | > 50 | > 50 | < 12.5 |  |  |
